Our source for the IC50 values is PubChem BioAssay AID540269 (Sanford-Burnham Center for Chemical Genomics, 2011).

Activity calls are given as the source filed them. The rule behind the calls is not given here. Some results are limits rather than exact numbers.

The target in this test is glucose-6-phosphate dehydrogenase-6-phosphogluconolactonase (Plasmodium falciparum 3D7). Nature of the test: inhibition of P. falciparum G6PD activity – biochemical, kinetic NADPH detection, orthogonal assay, dose response (AID 540269). To be noted: purified PfG6PD-6PGL.
Consider `Cc1cccc(C2(c3cccc(C)c3)CC2C(=O)Nc2ccc([N+](=O)[O-])cc2O)c1` (centres undefined), for which the IC50 is > 80 µM (inactive). `CN(C)Cc1cc(O)c(CN(C)C)cc1O`: the IC50 is 25.6 µM.

As to `O=S(=O)(NCc1csc(-c2ccccc2)n1)c1ccc(Cl)s1`, the IC50 is > 80 µM (inactive). As for `O=c1c2ccccc2sn1-c1ccc(Cl)cc1`, the IC50 is 17.1 µM. As to `Cc1no[n+]([O-])c1COc1cccc(/C=N/Nc2nncn2N)c1`, the IC50 was 30.5 µM. With `O=C1NC(=S)NC(=O)C1=Cc1ccc(Br)s1` the figure was > 80 µM (inactive); with `COc1cc(N)c2ncccc2c1SC`, 38.8 µM; with `Cc1ccc(NC2=C(NC(=O)c3ccccc3)C(=O)c3ccccc3C2=O)cc1Cl`, > 80 µM (inactive).

In the case of `COc1cc(N=c2ssnc2Cl)c(OC)cc1Cl`, the IC50 is 36.8 µM. Turning to `COc1ccc(CN(C)S(=O)(=O)c2nnc(NC(=O)c3ccc(C)cc3)s2)cc1OC`, the IC50 was 29.9 µM. For `Cc1ccc(NC(=O)c2cc(N3C(=O)C=CC3=O)ccc2N2CCOCC2)cc1Cl`, the IC50 is > 80 µM (inactive). For the compound `C=CCc1c(C)[nH]c(=S)c(C#N)c1C`, the IC50 is > 80 µM (inactive).

As to `Cc1ccccc1OCC(=O)N/N=C/c1ccc(Sc2nc3ccccc3s2)o1`, the IC50 was > 80 µM (inactive).

For `Cc1ccc(/C=C/C(=O)NCCc2cccc(Cl)c2)o1`, the IC50 is > 80 µM (inactive). As for `Cc1nc2ccc(Nc3nc4cc(S(=O)(=O)N5CCOCC5)ccc4o3)cc2s1`, the IC50 was > 80 µM (inactive). Consider `COc1cccc(CNc2ccc3[nH]c(=O)[nH]c3c2)c1OCc1ccc(F)cc1`, for which the IC50 is > 80 µM (inactive). With `Oc1ccc(C23CC4CC(CC(C4)C2)C3)cc1O` the figure was 37.8 µM. Consider `O=S(=O)(Nc1ccccc1F)c1cccc(NC(=S)NCCN2CCOCC2)c1`, for which the IC50 was 50.2 µM. With `O=C(CBr)c1ccc([N+](=O)[O-])c(CS(=O)(=O)c2ccc(Cl)cc2)c1` the figure was > 80 µM (inactive); with `Cc1ccc(S(=O)(=O)/N=C2/C=C(C3C(=O)CC(C)(C)CC3=O)C(=O)c3ccccc32)cc1`, > 80 µM (inactive).

In the case of `O=c1c2cc(F)ccc2sn1-c1ccc(F)cc1`, the IC50 is 23.4 µM. Turning to `CSc1nnc(NC(=O)c2ccc3c(c2)OCO3)s1`, the IC50 is 27.1 µM. Turning to `c1ccc(SSc2ccccn2)nc1`, the IC50 was 64.1 µM. Take `O=S(c1ccccc1O)S(=O)c1ccccc1O` (centres undefined): the IC50 is 36.4 µM. The result for `O=C(CCl)NCCN1C(=O)S/C(=C\c2cccnc2)C1=O` reads > 80 µM (inactive); that for `Cc1ccc(NC(=O)c2cc(N3C(=O)C=CC3=O)ccc2Cl)cc1C`, 43.5 µM.

Turning to `CC1CN(c2ccccc2)NC1=O` (centres undefined), the IC50 was > 80 µM (inactive). On to `COc1cc(SSc2cc(OC)cc([N+](=O)[O-])c2N)c(N)c([N+](=O)[O-])c1`, for which the IC50 was 44.6 µM. For `O=[N+]([O-])c1c(NCCCO)cc(Sc2nc3ccccc3s2)c2nonc12`, the IC50 was 73.7 µM. In the case of `CCCCC1C(=O)N(c2ccccc2)N(c2ccc(O)cc2)C1=O` (centres undefined), the IC50 was > 80 µM (inactive).

Regarding `c1ccc(-c2cn3c(n2)CCc2ccc4cccnc4c2-3)cc1`, the IC50 was > 80 µM (inactive). Consider `CN1/C(=C\C(=O)c2cccs2)Sc2ccccc21`, for which the IC50 was 26.1 µM.

As to `O=C(CN1C(=O)C2C3C=CC(C3)C2C1=O)OCC(=O)c1ccc([N+](=O)[O-])cc1` (centres undefined), the IC50 was > 80 µM (inactive). With `Cn1c(=O)c2c([nH]c(=S)n2CCCc2ccccc2)n(C)c1=O`, the IC50 is 72.8 µM.

Take `Cc1cc(C)c2c(=N)c3ccccc3n(CCCCCCCCn3c4ccccc4c(=N)c4c(C)cc(C)nc43)c2n1`: the IC50 is 50.3 µM. For the compound `O=[N+]([O-])c1ccc2c(c1)-c1ccccc1C2O` (centres undefined), the IC50 is 42.9 µM. Regarding `COc1cc(NC(C)CCc2ccccc2)cc(OC)c1OC` (centres undefined), the IC50 was > 80 µM (inactive). The result for `OCc1ccccc1SSc1ccccc1CO` reads 53.1 µM; that for `COc1cc(OC)c(C2CC(=O)N3CN(c4ccccc4)CSC3=C2C#N)cc1OC` (centres undefined), > 80 µM (inactive). In the case of `C[C@H](NC(=O)c1cc2c(cn1)[nH]c1ccccc12)C(=O)O`, the IC50 is > 80 µM (inactive). Consider `O=[N+]([O-])c1cnc(Sc2ccncn2)c([N+](=O)[O-])c1`, for which the IC50 is 62.8 µM. Take `O=C1C(=Cc2cccc(O)c2O)SC(=S)N1CCCN1CCOCC1`: the IC50 was 28.2 µM. With `COc1ccc(S(=O)(=O)/N=C2\C=C(Nc3ccc(O)cc3)C(=O)c3ccccc32)cc1` the figure was > 80 µM (inactive).

For `O=C(CSc1nc2ccc(Cl)cc2[nH]1)NC1CCCc2ccccc21` (centres undefined), the IC50 was > 80 µM (inactive). Take `c1cc2c(cc1NC1CCCCCC1)OCO2`: the IC50 was > 80 µM (inactive). For the compound `[O-]/[N+](=C\c1ccco1)c1ccc(Cl)cc1`, the IC50 was 76.7 µM. As to `Cc1cccc(C(=O)Nc2sc3c(c2C(=O)O)CCCC3)c1`, the IC50 is 32.9 µM. Take `COc1cccc2nc3cc(C)c(C)cc3nc12`: the IC50 is > 80 µM (inactive).

As for `CC(C)c1nnc(NC(=O)c2sc3ccccc3c2Cl)s1`, the IC50 was 35.5 µM. Regarding `CCc1c(C(=O)Nc2ccccc2)c(C)[nH]c(=S)c1C#N`, the IC50 was > 80 µM (inactive). As for `CC1=NOC(=O)/C1=C\c1ccc(-c2ccccc2Br)o1`, the IC50 was > 80 µM (inactive). The result for `Cc1cc(C)nc(SSc2nc(C)cc(C)n2)n1` reads 68 µM; that for `COC(=O)CCC(=O)Nc1sc(Cc2ccccc2)c(C)c1C(N)=O`, 35.1 µM; that for `C(=N\Nc1nc2ccccc2[nH]1)/c1ccccn1`, > 80 µM (inactive). In the case of `Cc1ccc(/C=C2\C(=O)NC(=S)N(c3ccccc3F)C2=O)s1`, the IC50 was > 80 µM (inactive). For `C[c-]1[c-](C)[c-](C)[c-](C)[c-]1C.[Fe].c1cc2nccc(N3CCCC3)[c-]2c1` (centres undefined), the IC50 is 52.9 µM. For the compound `Cc1ccc(-c2nc(N)s[n+]2-c2ccccc2)cc1`, the IC50 is > 80 µM (inactive).

In the case of `Cc1ccc(-c2c(C(=O)N/N=C/c3cccs3)nnn2-c2nonc2N)cc1`, the IC50 is > 80 µM (inactive). With `COCCNC(=S)Nc1ccc(N2CCOCC2)c(S(=O)(=O)Nc2ccc(Cl)cc2)c1` the figure was > 80 µM (inactive); with `O=[N+]([O-])c1ccc(-[n+]2ccc3ccccc3c2)c([N+](=O)[O-])c1`, > 80 µM (inactive); with `Cn1c(=O)[nH]c(=O)c2c1nc(SCCN1CCCCC1)n2CCCc1ccccc1`, 56.7 µM. For `C[C@H](CO)N1C[C@H](C)[C@@H](CN(C)C(=O)Nc2ccc(C(F)(F)F)cc2)Oc2c(cccc2N(C)C)C1=O`, the IC50 is > 80 µM (inactive). Regarding `COc1cc(/C=C2\SC(c3ccc(C)cc3)=NC2=O)cc(OC)c1O`, the IC50 is > 80 µM (inactive).

For `CCC(=O)OCCNc1cc(Sc2nc3ccccc3s2)c2nonc2c1[N+](=O)[O-]`, the IC50 is > 80 µM (inactive). Turning to `C=CCSc1nnc(NC(=O)c2ccc(Cl)nc2)s1`, the IC50 is > 80 µM (inactive). With `O=C(Nc1nnc(S(=O)(=O)N2CCCC2)s1)c1cccc([N+](=O)[O-])c1` the figure was > 80 µM (inactive); with `COc1cccc(C(=O)Nc2nnc(S(=O)(=O)N(C)Cc3ccccc3)s2)c1`, 18.6 µM; with `CCN(CC)c1ccc(NC(=O)c2ccccc2Br)cc1S(=O)(=O)Nc1ccccc1OC`, 59.2 µM. On to `O=C1Nc2ccccc2C(=O)C1(Cl)Cc1ccccc1` (centres undefined), for which the IC50 is > 80 µM (inactive). On to `Cc1cc(C)c2c(=O)n(CC(=O)N3CCC(N4CCCCC4)CC3)sc2n1`, for which the IC50 was 48.4 µM.

For `O=c1c2cc([N+](=O)[O-])ccc2sn1-c1ccccc1`, the IC50 was 15.9 µM. Regarding `COc1ccc(/C=C/c2nc3ccccc3n2Cc2ccc(OC)c(OC)c2)cc1`, the IC50 is 51.1 µM. Take `CCOC(=O)c1c(OCC)[nH]c2c1cc(O)c1ccccc12`: the IC50 was > 80 µM (inactive). As for `CC(C)(C)c1ccc(C(=O)Nc2sc3c(c2C(=O)O)CCC3)cc1`, the IC50 was 12.7 µM. With `Cn1c(=O)[nH]c(=O)c2c1[nH]c(=S)n2CCCc1ccccc1`, the IC50 was 43.7 µM. With `COc1cc(N2C(=O)C=CC2=O)ccc1N1C(=O)C=CC1=O`, the IC50 is 19.5 µM. Take `C[C@]12CC[C@@H]3c4cc(O)c(O)cc4CC[C@H]3[C@@H]1CC[C@@H]2O`: the IC50 is 25 µM. Turning to `CCN1CCN(C(=S)c2ccc(Cl)c(Cl)c2)CC1`, the IC50 is > 80 µM (inactive).

For `COc1cc(N=c2ssnc2Cl)cc(OC)c1`, the IC50 is > 80 µM (inactive). The result for `O=C(O)c1cc(N2C(=O)C=CC2=O)cc(N2C(=O)C=CC2=O)c1` reads 19.6 µM; that for `O=C(Nc1sc2c(c1C(=O)O)CCC2)c1ccc(F)cc1`, 41.3 µM.

Take `Cc1ccc(Cl)cc1NC1=C/C(=N\S(=O)(=O)c2cccs2)c2ccccc2C1=O`: the IC50 was > 80 µM (inactive).

With `COC(=O)[C@H](CCSC)NC(=O)c1cc2c(cn1)[nH]c1ccccc12`, the IC50 was 20.2 µM. The result for `CCOc1ccc(S(=O)(=O)Nc2cc(SCC(=O)O)c(O)c3ccccc23)cc1` reads 48.2 µM. As for `O=C1Nc2cc(C(=O)NCCCN3CCCC3)ccc2S/C1=C\c1ccccc1`, the half-inhibitory concentration (IC50) is 22.3 µM. The result for `CC(=O)OCCCNc1cc(Sc2nc3ccccc3s2)c2nonc2c1[N+](=O)[O-]` reads 14.9 µM. For `O=S(=O)(Nc1cc(Sc2ncn[nH]2)c(O)c2ccccc12)c1ccccc1`, the IC50 is 23.9 µM. With `Oc1ccc(/C=N/N=C(c2ccccc2)c2ccccc2)c(O)c1O` the figure was 54.6 µM; with `COc1cc(Sc2ccc(C)cc2)c(OC)cc1N`, > 80 µM (inactive). On to `COc1cc(C(=O)O/N=C2/C=C(C)C(=O)C=C2C)cc(OC)c1OC`, for which the IC50 was > 80 µM (inactive).

With `CN1C(=O)C(N=Nc2ccc([N+](=O)[O-])cc2)SC1=S` (centres undefined), the IC50 is > 80 µM (inactive). For the compound `CC1=C(O)C(=O)C=C2C1=CC=C1C2(C)CCC2(C)C3CC(C)(C(=O)O)CCC3(C)CCC12C` (centres undefined), the IC50 was 45.7 µM. `CCN=c1scc(C)n1/N=C/c1ccc(O)c(O)c1O`: the half-maximal inhibitory concentration (IC50) was 39.2 µM. `O=C(Cn1sc2ccccc2c1=O)NC12CC3CC(CC(C3)C1)C2`: the IC50 is 13.5 µM.

Usually IC50 stands for the concentration that gives 50% inhibition.
